“And” between values parts separate entries of the source, which are not always exact repeats. Identical values can stand only once.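 Where inhibition never reached the appropriate level, the endpoint shown equals the highest concentration tested. Otherwise, values were interpolated linearly from a five-concentration, 48-hour dose response in 96-well plates. GI50 = concentration required for 50% inhibition of growth. TGI: total growth inhibition.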
How the values were obtained:
Experiment in all cases: NCI anticancer screen, dose series, 48 h
786-0 renal = system: 786-0 renal
A498 renal = system: A498 renal
A549 NSCLC = system: A549 NSCLC
ACHN renal = system: ACHN renal
BT-549 breast = system: BT-549 breast
CAKI-1 renal = system: CAKI-1 renal
CCRF-CEM leukemia = system: CCRF-CEM leukemia
COLO 205 colon = system: COLO 205 colon
DU-145 prostate = system: DU-145 prostate
EKVX NSCLC = system: EKVX NSCLC
HCC-2998 colon = system: HCC-2998 colon
HCT-116 colon = system: HCT-116 colon
HCT-15 colon = system: HCT-15 colon
HL-60(TB) leukemia = system: HL-60(TB) leukemia
HOP-62 NSCLC = system: HOP-62 NSCLC
HOP-92 NSCLC = system: HOP-92 NSCLC
HS 578T breast = system: HS 578T breast
HT29 colon = system: HT29 colon
IGROV1 ovarian = system: IGROV1 ovarian
K-562 leukemia = system: K-562 leukemia
KM12 colon = system: KM12 colon
LOX IMVI melanoma = system: LOX IMVI melanoma
M14 melanoma = system: M14 melanoma
MALME-3M melanoma = system: MALME-3M melanoma
MCF7 breast = system: MCF7 breast
MDA-MB-231 breast = system: MDA-MB-231 breast
MDA-MB-435 = system: MDA-MB-435
MOLT-4 leukemia = system: MOLT-4 leukemia
NCI-H226 lung = system: NCI-H226 lung
NCI-H23 lung = system: NCI-H23 lung
NCI-H460 lung = system: NCI-H460 lung
NCI-H522 lung = system: NCI-H522 lung
NCI/ADR-RES ovarian = system: NCI/ADR-RES ovarian
OVCAR-3 ovarian = system: OVCAR-3 ovarian
OVCAR-4 ovarian = system: OVCAR-4 ovarian
OVCAR-5 ovarian = system: OVCAR-5 ovarian
OVCAR-8 ovarian = system: OVCAR-8 ovarian
PC-3 prostate = system: PC-3 prostate
RPMI-8226 leukemia = system: RPMI-8226 leukemia
RXF 393 renal = system: RXF 393 renal
SF-268 CNS = system: SF-268 CNS
SF-295 CNS = system: SF-295 CNS
SF-539 CNS = system: SF-539 CNS
SK-MEL-2 melanoma = system: SK-MEL-2 melanoma
SK-MEL-28 melanoma = system: SK-MEL-28 melanoma
SK-MEL-5 melanoma = system: SK-MEL-5 melanoma
SK-OV-3 ovarian = system: SK-OV-3 ovarian
SN12C renal = system: SN12C renal
SNB-19 CNS = system: SNB-19 CNS
SNB-75 CNS = system: SNB-75 CNS
SR leukemia = system: SR leukemia
SW-620 colon = system: SW-620 colon
T-47D breast = system: T-47D breast
TK-10 renal = system: TK-10 renal
U251 CNS = system: U251 CNS
UACC-257 melanoma = system: UACC-257 melanoma
UACC-62 melanoma = system: UACC-62 melanoma
UO-31 renal = system: UO-31 renal

In the case of `CN1CCN(Cc2ccc(NC(=O)c3cncc(C#Cc4cnc5ccc(NC6CCOCC6)nn45)c3)cc2C(F)(F)F)CC1`, the GI50 (786-0 renal) is reported as 202 nM and 90 nM, the TGI (786-0 renal) is reported as 742 nM and 355 nM and the GI50 (A498 renal) is reported as 161 nM and 214 nM. For the same compound, the TGI (A498 renal) was 425 nM and 366 nM, the GI50 (A549 NSCLC) was 84.1 nM and 74.8 nM and the TGI (A549 NSCLC) was 459 nM and 671 nM. For the same compound, the GI50 (ACHN renal) was 161 nM and 155 nM, the TGI (ACHN renal) was 736 nM and 965 nM and the GI50 (BT-549 breast) was 120 nM and 275 nM. For the same compound, the TGI (BT-549 breast) was 770 nM and 860 nM, the GI50 (CAKI-1 renal) was 98.7 nM and 39.5 nM and the GI50 (CCRF-CEM leukemia) was 20.5 nM. The GI50 (COLO 205 colon) was 24.6 nM and 33.6 nM, the TGI (COLO 205 colon) was 90.7 nM and 127 nM and the GI50 (DU-145 prostate) was 125 nM and 60.9 nM. For the same compound, the TGI (DU-145 prostate) was 2160 nM and 431 nM, the GI50 (EKVX NSCLC) was 98.8 nM and 102 nM and the TGI (EKVX NSCLC) was 903 nM and 591 nM. For the same compound, the GI50 (HCC-2998 colon) was 226 nM and 189 nM, the TGI (HCC-2998 colon) was 2460 nM and 519 nM and the GI50 (HCT-116 colon) was 71.6 nM and 18.3 nM. For the same compound, the TGI (HCT-116 colon) was 265 nM and 455 nM, the GI50 (HCT-15 colon) was 324 nM and 205 nM and the TGI (HCT-15 colon) was 5100 nM and 667 nM. The GI50 (HL-60(TB) leukemia) was 139 nM and 43.2 nM, the TGI (HL-60(TB) leukemia) was 384 nM and 336 nM and the GI50 (HOP-62 NSCLC) was 59.9 nM and 43.3 nM. For the same compound, the TGI (HOP-62 NSCLC) was 507 nM and 300 nM, the GI50 (HOP-92 NSCLC) was 36.7 nM and 15.6 nM and the TGI (HOP-92 NSCLC) was 175 nM and 69.4 nM. The GI50 (HS 578T breast) was 54.2 nM and 31.7 nM, the TGI (HS 578T breast) was 368 nM and 335 nM and the GI50 (HT29 colon) was 115 nM and 70.4 nM. The TGI (HT29 colon) was 506 nM and 501 nM, the GI50 (IGROV1 ovarian) was 84.7 nM and 20.8 nM and the TGI (IGROV1 ovarian) was 321 nM and 212 nM. The GI50 (K-562 leukemia) was 5 nM, the TGI (K-562 leukemia) was 741 nM and 108 nM and the GI50 (KM12 colon) was 5 nM. The TGI (KM12 colon) was 667 nM and 389 nM, the GI50 (LOX IMVI melanoma) was 55.5 nM and 24.8 nM and the TGI (LOX IMVI melanoma) was 140 nM and 172 nM. The GI50 (M14 melanoma) was 66.4 nM and 49.4 nM, the TGI (M14 melanoma) was 156 nM and 200 nM and the GI50 (MALME-3M melanoma) was 99.6 nM and 78 nM. For the same compound, the TGI (MALME-3M melanoma) was 588 nM and 246 nM, the GI50 (MCF7 breast) was 41.5 nM and the TGI (MCF7 breast) was 543 nM and 377 nM. The GI50 (MDA-MB-231 breast) was 48.2 nM and 19.6 nM, the TGI (MDA-MB-231 breast) was 219 nM and 241 nM and the GI50 (MDA-MB-435) was 119 nM and 63 nM. For the same compound, the TGI (MDA-MB-435) was 761 nM and 268 nM, the GI50 (MOLT-4 leukemia) was 42 nM and the TGI (MOLT-4 leukemia) was 1140 nM and 612 nM. It also gave a GI50 (NCI-H226 lung) of 67.5 nM, a TGI (NCI-H226 lung) of 5790 nM and a GI50 (NCI-H23 lung) of 114 nM. The TGI (NCI-H23 lung) was 529 nM, the GI50 (NCI-H460 lung) was 62.7 nM and 33.9 nM and the TGI (NCI-H460 lung) was 837 nM and 197 nM. For the same compound, the GI50 (NCI-H522 lung) was 42.3 nM and 20.2 nM, the TGI (NCI-H522 lung) was 116 nM and 137 nM and the GI50 (NCI/ADR-RES ovarian) was 2640 nM and 1670 nM. For the same compound, the TGI (NCI/ADR-RES ovarian) was 10900 nM and 4620 nM, the GI50 (OVCAR-3 ovarian) was 135 nM and 70.3 nM and the TGI (OVCAR-3 ovarian) was 752 nM and 300 nM. The GI50 (OVCAR-4 ovarian) was 157 nM and 102 nM, the TGI (OVCAR-4 ovarian) was 5950 nM and 733 nM and the GI50 (OVCAR-5 ovarian) was 125 nM and 149 nM. The TGI (OVCAR-5 ovarian) was 752 nM and 773 nM, the GI50 (OVCAR-8 ovarian) was 107 nM and 65.2 nM and the TGI (OVCAR-8 ovarian) was 645 nM and 495 nM. For the same compound, the GI50 (PC-3 prostate) was 108 nM and 114 nM, the TGI (PC-3 prostate) was 5340 nM and 1160 nM and the GI50 (RPMI-8226 leukemia) was 136 nM and 123 nM. The TGI (RPMI-8226 leukemia) was 434 nM and 456 nM, the GI50 (RXF 393 renal) was 58.9 nM and 39.5 nM and the TGI (RXF 393 renal) was 174 nM and 180 nM. The GI50 (SF-268 CNS) was 74.3 nM and 42.9 nM, the TGI (SF-268 CNS) was 930 nM and 293 nM and the GI50 (SF-295 CNS) was 63.2 nM and 208 nM. For the same compound, the TGI (SF-295 CNS) was 3810 nM and 812 nM, the GI50 (SF-539 CNS) was 17.6 nM and 17.5 nM and the TGI (SF-539 CNS) was 83.2 nM and 112 nM. For the same compound, the GI50 (SK-MEL-2 melanoma) was 95.1 nM and 111 nM, the TGI (SK-MEL-2 melanoma) was 197 nM and 246 nM and the GI50 (SK-MEL-28 melanoma) was 179 nM and 155 nM. For the same compound, the TGI (SK-MEL-28 melanoma) was 986 nM and 344 nM, the GI50 (SK-MEL-5 melanoma) was 296 nM and 158 nM and the TGI (SK-MEL-5 melanoma) was 1030 nM and 312 nM. For the same compound, the GI50 (SK-OV-3 ovarian) was 116 nM, the TGI (SK-OV-3 ovarian) was 439 nM and the GI50 (SN12C renal) was 24.1 nM and 21.5 nM. For the same compound, the TGI (SN12C renal) was 804 nM and 549 nM, the GI50 (SNB-19 CNS) was 137 nM and 174 nM and the TGI (SNB-19 CNS) was 4370 nM and 882 nM. The GI50 (SNB-75 CNS) was 67.8 nM, the TGI (SNB-75 CNS) was 198 nM and 22.4 nM and the GI50 (SR leukemia) was 35.5 nM. For the same compound, the TGI (SR leukemia) was 506 nM and 351 nM, the GI50 (SW-620 colon) was 76.6 nM and 21.3 nM and the TGI (SW-620 colon) was 1640 nM and 167 nM. The GI50 (T-47D breast) was 165 nM and 167 nM, the TGI (T-47D breast) was 1480 nM and 973 nM and the GI50 (TK-10 renal) was 156 nM. The TGI (TK-10 renal) was 759 nM, the GI50 (U251 CNS) was 125 nM and 134 nM and the TGI (U251 CNS) was 610 nM and 349 nM. The GI50 (UACC-257 melanoma) was 203 nM and 191 nM, the TGI (UACC-257 melanoma) was 1420 nM and 614 nM and the GI50 (UACC-62 melanoma) was 120 nM and 145 nM. The TGI (UACC-62 melanoma) was 685 nM and 323 nM, the GI50 (UO-31 renal) was 584 nM and 235 nM and the TGI (UO-31 renal) was 3050 nM and 749 nM.
Compound `c1ccc(-c2c(-c3ccccc3)[n+](Cc3ccc4ccccc4c3)c(-c3ccccc3)n2Cc2ccc3ccccc3c2)cc1` has a GI50 (786-0 renal) of 352 nM, a TGI (786-0 renal) of 1860 nM and a GI50 (ACHN renal) of 401 nM. It also gave a TGI (ACHN renal) of 1390 nM, a GI50 (CCRF-CEM leukemia) of 241 nM and a TGI (CCRF-CEM leukemia) of 1240 nM. For the same compound, the GI50 (DU-145 prostate) was 365 nM, the TGI (DU-145 prostate) was 1430 nM and the GI50 (HL-60(TB) leukemia) was 150 nM. It also gave a TGI (HL-60(TB) leukemia) of 400 nM, a GI50 (HOP-92 NSCLC) of 158 nM and a TGI (HOP-92 NSCLC) of 592 nM. The GI50 (HS 578T breast) was 370 nM, the TGI (HS 578T breast) was 1830 nM and the GI50 (K-562 leukemia) was 181 nM. For the same compound, the TGI (K-562 leukemia) was 1230 nM, the GI50 (MOLT-4 leukemia) was 285 nM and the TGI (MOLT-4 leukemia) was 1130 nM. It also gave a GI50 (NCI-H23 lung) of 224 nM, a TGI (NCI-H23 lung) of 727 nM and a GI50 (PC-3 prostate) of 200 nM. The TGI (PC-3 prostate) was 862 nM, the GI50 (RPMI-8226 leukemia) was 56.8 nM and the TGI (RPMI-8226 leukemia) was 505 nM. It also gave a GI50 (SW-620 colon) of 326 nM, a TGI (SW-620 colon) of 1380 nM and a GI50 (UO-31 renal) of 672 nM. For the same compound, the TGI (UO-31 renal) was 2940 nM.

— PubChem BioAssay (NCI)
